# Measured values taken from patent US20080241816A1, “Method for Stabilizing Oxidizable Color Developing Reagent” (DAIICHI PURE CHEMICALS CO., LTD, priority 2004, published 2008).
# Key:
# [1] = Stabilization Test 2 for TPM-PS (storage at 25° C. for 10 days, absorbance at 600 nm); type: physicochemical; settings: for Variation over 10 days (OD): 600 nm
# Procedure: TPM-PS was dissolved in each of the aqueous solutions described below so as to attain a concentration of 100 μM, and absorbance was measured at 600 nm. After each sample was stored at 25° C. for 10 days, absorbance was again measured at 600 nm.
# [2] = Stabilization Test 1 for TPM-PS (storage at 37° C., absorbance at 600 nm); type: physicochemical; settings: for absorbance at 600 nm, 2-Week storage / absorbance at 600 nm, 3-Week storage / absorbance at 600 nm, Time 0: 37° C.; for absorbance at 600 nm, Time 0: time 0 (start)
# Procedure: TPM-PS was dissolved in each of the aqueous solutions described below so as to attain a concentration of 60 μM, and stored at 37° C. Subsequently, absorbance was measured at 600 nm by means of an automated analyzer (Model 7150; product of Hitachi, Ltd.).
# [3] = 60 μM in 5 mM Citric acid (pH 2.8)
# [4] = 60 μM in 5 mM Maleic acid (pH 2.5)
# [5] = 60 μM in 5 mM Tartaric acid (pH 2.8)
compound,measurement,setting,value
"O=S(=O)(O)CCCN(CCCS(=O)(=O)O)c1ccc(C(c2ccc(N(CCCS(=O)(=O)O)CCCS(=O)(=O)O)cc2)c2ccc(N(CCCS(=O)(=O)O)CCCS(=O)(=O)O)cc2)cc1 [TPM-PS, N,N,N′,N′,N″,N″-hexa-3-sulfopropyl-4,4′,4″-triaminotriphenylmethane]",Variation over 10 days (OD),"[1]; 100 μM in 100 mM Citrate buffer, pH 3, 25° C.",−0.01 OD
same,Variation over 10 days (OD),"[1]; 100 μM in 100 mM Citrate buffer, pH 4, 25° C.",0.08 OD
same,Variation over 10 days (OD),"[1]; 100 μM in 100 mM Citrate buffer, pH 5, 25° C.",0.15 OD
same,Variation over 10 days (OD),"[1]; 100 μM in 100 mM Glycine-HCl, pH 2, 25° C.",0.00 OD
same,Variation over 10 days (OD),"[1]; 100 μM in 100 mM Glycine-HCl, pH 3, 25° C.",−0.01 OD
same,Variation over 10 days (OD),"[1]; 100 μM in 100 mM Potassium phosphate buffer, pH 6, 25° C.",0.22 OD
same,Variation over 10 days (OD),"[1]; 100 μM in 100 mM Potassium phosphate buffer, pH 7, 25° C.",0.16 OD
same,Variation over 10 days (OD),"[1]; 100 μM in 100 mM Potassium phosphate buffer, pH 8, 25° C.",0.17 OD
same,Variation over 10 days (OD),"[1]; 100 μM in Control (purified water), pH Not regulated, 25° C.",0.22 OD
same,Variation over 10 days (OD),"[1]; 100 μM in HCl—KCl, pH 1, 25° C.",−0.01 OD
same,Variation over 10 days (OD),"[1]; 100 μM in HCl—KCl, pH 2, 25° C.",0.01 OD
same,absorbance variation / storage stability,"[1]; aqueous solution of pH 1 to 5, 25° C., 10 days",stably stored
same,"absorbance at 600 nm, 2-Week storage",[2]; [3],0.057
same,"absorbance at 600 nm, 3-Week storage",[2]; [3],0.080
same,"absorbance at 600 nm, Time 0",[2]; [3],0.022
same,"absorbance at 600 nm, 2-Week storage",[2]; [4],0.050
same,"absorbance at 600 nm, 3-Week storage",[2]; [4],0.072
same,"absorbance at 600 nm, Time 0",[2]; [4],0.023
same,"absorbance at 600 nm, 2-Week storage",[2]; [5],0.064
same,"absorbance at 600 nm, 3-Week storage",[2]; [5],0.088
same,"absorbance at 600 nm, Time 0",[2]; [5],0.024
same,"absorbance at 600 nm, 2-Week storage",[2]; 60 μM in 20 mM PB-K (pH 8),0.132
same,"absorbance at 600 nm, 3-Week storage",[2]; 60 μM in 20 mM PB-K (pH 8),0.215
same,"absorbance at 600 nm, Time 0",[2]; 60 μM in 20 mM PB-K (pH 8),0.023
same,nonspecific color development / stability in solution,"[2]; aqueous solutions of pH 1 to 5, 37° C.",suppressed effectively
